Measurements published in US8633196B2, “Benzenesulfonamide compounds, method for synthesizing same, and use thereof in medicine as well as in cosmetics” (Galderma Research & Development, priority 2009, dated 2014).
Where two headings read alike, the source gives them in different places.

Assays:
[1] = target: MMP1 (Homo sapiens (Human), UniProt P03956); assay: Selectivity assay, MMP1; assay type: biochemical
[2] = target: MMP3 (Homo sapiens (Human), UniProt P08254); assay: Selectivity assay, MMP3; assay type: biochemical
Sequence of MMP3 (P08254 100-477, species assumed): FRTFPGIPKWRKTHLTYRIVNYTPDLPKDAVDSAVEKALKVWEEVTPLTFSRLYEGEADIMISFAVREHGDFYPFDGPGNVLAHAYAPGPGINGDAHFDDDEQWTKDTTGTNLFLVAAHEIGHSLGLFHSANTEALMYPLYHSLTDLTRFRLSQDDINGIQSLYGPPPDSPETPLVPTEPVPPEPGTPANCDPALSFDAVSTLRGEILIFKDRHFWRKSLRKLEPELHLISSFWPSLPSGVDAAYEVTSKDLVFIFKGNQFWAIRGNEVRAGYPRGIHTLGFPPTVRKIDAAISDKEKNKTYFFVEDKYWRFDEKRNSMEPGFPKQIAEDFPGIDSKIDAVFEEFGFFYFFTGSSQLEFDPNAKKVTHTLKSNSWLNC

[3] = target: T1, TACE enzyme (Homo sapiens (Human), UniProt P78536); assay: Enzymatic assay for TACE inhibition (fluorescent substrate); assay type: biochemical
Target sequence in this assay (P78536 215-824 limits assumed): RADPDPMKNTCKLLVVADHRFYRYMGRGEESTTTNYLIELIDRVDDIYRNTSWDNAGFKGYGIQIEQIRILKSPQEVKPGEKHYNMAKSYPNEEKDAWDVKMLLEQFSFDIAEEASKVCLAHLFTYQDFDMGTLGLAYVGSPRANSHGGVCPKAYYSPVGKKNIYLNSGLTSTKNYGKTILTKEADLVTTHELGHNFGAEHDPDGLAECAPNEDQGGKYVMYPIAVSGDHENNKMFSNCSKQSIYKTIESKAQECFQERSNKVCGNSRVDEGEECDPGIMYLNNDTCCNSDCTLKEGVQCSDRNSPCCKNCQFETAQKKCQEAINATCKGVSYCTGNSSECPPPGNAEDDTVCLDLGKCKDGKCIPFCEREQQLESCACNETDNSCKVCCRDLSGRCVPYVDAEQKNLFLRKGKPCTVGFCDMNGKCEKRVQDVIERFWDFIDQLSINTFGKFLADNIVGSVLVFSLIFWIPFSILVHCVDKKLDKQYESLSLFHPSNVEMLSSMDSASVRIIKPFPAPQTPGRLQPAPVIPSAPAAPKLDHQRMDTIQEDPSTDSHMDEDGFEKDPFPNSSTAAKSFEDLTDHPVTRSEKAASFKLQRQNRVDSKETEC

[4] = target: ADAM10 (Homo sapiens (Human), UniProt O14672); assay: Selectivity assay, ADAM10
Sequence of ADAM10 (O14672 214-748, species assumed): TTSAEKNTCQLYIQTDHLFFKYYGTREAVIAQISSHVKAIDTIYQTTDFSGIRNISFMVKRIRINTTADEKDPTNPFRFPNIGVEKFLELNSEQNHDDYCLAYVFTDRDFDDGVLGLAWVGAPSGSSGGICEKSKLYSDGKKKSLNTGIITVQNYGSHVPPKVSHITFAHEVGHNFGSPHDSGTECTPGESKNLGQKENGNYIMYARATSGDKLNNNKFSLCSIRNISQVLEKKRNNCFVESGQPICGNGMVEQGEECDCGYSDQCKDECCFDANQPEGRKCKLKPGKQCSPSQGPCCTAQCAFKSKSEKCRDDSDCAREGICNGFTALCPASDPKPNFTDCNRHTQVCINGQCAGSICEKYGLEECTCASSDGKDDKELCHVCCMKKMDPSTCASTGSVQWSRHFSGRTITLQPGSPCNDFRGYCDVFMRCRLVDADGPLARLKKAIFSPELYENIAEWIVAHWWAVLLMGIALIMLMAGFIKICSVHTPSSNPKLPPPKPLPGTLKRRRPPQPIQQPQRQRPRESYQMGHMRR

[5] = target: ADAM9 (Homo sapiens (Human), UniProt Q13443); assay: Selectivity assay, ADAM9; assay type: biochemical
Sequence of ADAM9 (Q13443 29-819, species assumed): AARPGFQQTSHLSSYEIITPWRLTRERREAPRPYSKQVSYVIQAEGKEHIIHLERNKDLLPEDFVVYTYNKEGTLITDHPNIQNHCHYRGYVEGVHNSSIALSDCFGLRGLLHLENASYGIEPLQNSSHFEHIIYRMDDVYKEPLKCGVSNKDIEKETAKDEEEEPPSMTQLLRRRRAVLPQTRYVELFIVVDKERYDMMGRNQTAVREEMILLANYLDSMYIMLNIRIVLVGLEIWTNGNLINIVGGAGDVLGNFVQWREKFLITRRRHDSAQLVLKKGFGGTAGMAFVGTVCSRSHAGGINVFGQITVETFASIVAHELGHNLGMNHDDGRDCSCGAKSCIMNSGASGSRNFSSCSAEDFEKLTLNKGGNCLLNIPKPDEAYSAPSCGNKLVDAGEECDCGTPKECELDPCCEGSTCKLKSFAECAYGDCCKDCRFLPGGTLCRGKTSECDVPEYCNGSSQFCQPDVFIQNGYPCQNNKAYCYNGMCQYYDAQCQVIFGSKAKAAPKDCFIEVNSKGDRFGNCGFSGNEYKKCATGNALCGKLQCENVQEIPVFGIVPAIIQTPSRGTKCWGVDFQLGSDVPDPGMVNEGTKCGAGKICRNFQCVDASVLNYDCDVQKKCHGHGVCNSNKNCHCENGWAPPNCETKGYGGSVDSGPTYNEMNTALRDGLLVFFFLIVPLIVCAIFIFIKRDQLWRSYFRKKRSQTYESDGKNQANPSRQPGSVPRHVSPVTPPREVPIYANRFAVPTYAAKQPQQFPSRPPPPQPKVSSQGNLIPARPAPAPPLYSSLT

[6] = target: MMP9 (Homo sapiens (Human), UniProt P14780); assay: Selectivity assay, MMP9; assay type: biochemical
Sequence of MMP9 (P14780 94-707, species assumed): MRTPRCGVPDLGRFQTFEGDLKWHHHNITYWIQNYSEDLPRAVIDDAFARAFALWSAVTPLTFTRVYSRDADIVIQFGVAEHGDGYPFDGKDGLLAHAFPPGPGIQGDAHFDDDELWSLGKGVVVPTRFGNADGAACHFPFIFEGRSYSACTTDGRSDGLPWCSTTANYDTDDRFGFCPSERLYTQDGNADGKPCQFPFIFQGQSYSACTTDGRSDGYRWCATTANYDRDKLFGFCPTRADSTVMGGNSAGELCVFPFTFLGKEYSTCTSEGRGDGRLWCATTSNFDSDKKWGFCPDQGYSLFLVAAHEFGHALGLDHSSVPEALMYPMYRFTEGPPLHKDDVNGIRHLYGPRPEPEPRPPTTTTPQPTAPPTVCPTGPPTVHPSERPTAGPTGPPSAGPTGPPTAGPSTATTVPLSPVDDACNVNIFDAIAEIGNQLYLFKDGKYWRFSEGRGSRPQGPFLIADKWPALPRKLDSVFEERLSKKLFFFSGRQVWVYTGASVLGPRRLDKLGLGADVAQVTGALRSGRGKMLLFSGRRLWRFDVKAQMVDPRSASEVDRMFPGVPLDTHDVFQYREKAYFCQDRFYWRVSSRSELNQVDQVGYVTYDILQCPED

[7] = target: T1, TACE enzyme; settings: WO 00/44709; page 251, table 10, example 61; cited from earlier work
Target sequence in this assay (P78536 whole entry, looked up): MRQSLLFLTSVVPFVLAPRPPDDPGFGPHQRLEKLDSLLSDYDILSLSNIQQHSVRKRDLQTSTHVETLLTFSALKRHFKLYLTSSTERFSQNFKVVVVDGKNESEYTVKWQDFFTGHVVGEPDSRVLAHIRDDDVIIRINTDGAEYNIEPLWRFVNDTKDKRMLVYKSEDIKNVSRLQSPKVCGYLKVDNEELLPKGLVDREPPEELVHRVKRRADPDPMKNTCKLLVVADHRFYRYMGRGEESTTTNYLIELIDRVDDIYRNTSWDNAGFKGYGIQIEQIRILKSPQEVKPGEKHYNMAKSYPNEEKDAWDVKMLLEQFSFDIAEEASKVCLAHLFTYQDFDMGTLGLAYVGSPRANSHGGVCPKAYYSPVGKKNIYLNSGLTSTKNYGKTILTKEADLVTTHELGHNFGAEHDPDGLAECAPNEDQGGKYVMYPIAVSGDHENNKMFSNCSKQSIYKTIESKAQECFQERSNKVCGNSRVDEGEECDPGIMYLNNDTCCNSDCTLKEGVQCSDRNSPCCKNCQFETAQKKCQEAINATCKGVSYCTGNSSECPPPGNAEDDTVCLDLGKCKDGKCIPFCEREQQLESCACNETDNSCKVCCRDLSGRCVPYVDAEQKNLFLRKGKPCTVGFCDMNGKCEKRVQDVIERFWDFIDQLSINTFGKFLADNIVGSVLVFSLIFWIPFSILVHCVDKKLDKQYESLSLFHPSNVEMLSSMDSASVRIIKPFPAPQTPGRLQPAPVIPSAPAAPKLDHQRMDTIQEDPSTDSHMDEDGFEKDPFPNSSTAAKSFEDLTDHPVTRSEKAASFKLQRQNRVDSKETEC

[8] = TACE column of selectivity table, read-out: IC50 (nM) TACE
[9] = enzymatic assay, substrate 40 μM, read-out: IC50-TACE

Sequence of MMP1 (P03956 100-469, species assumed): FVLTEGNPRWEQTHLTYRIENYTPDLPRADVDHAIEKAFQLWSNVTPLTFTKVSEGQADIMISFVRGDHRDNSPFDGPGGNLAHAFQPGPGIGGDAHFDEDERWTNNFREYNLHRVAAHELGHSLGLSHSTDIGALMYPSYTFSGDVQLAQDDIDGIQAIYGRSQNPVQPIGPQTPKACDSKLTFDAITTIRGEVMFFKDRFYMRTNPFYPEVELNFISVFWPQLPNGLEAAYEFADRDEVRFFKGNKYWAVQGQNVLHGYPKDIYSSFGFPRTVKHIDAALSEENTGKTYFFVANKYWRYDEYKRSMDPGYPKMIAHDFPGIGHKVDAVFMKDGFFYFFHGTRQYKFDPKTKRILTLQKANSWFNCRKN

Row | IC50 [1] | IC50 [2] | IC50 [3, 8] | % TACE inhibition at 10 μM [3] | IC50 [3, 9] | SMILES | further results
1 | 2220 nM | 1060 nM | 53 nM | 97% | 53 nM | Cc1cc(COc2ccc(S(=O)(=O)NC[C@@H](C(=O)NO)N3CCN(C(=O)C(C)C)CC3)cc2)c2ccccc2n1 [Example 23, (S)-N-hydroxy-2-(4-isobutyrylpiperazin-1-yl)-3-[4-(2-methylquinolin-4-ylmethoxy)-benzenesulfonylamino]propionamide] | 
2 |  |  |  | 100% | 127 nM | CS(=O)(=O)N1CCN([C@@H](CNS(=O)(=O)c2ccc(OCc3cccc(C#N)c3)cc2)C(=O)NO)CC1 [Example 8, (S)-3-[4-(3-Cyanobenzyloxy)benzenesulfonylamino]-N-hydroxy-2-(4-methanesulfonylpiperazin-1-yl)propionamide] | 
3 |  |  |  | 96% | 168 nM | CS(=O)(=O)N1CCN([C@@H](CNS(=O)(=O)c2ccc(OCc3ccnc4ccccc34)cc2)C(=O)NO)CC1 [Example 16, (S)-N-Hydroxy-2-(4-methanesulfonylpiperazin-1-yl)-3-[4-(quinolin-4-ylmethoxy)benzenesulfonylamino]propionamide] | 
4 | 3940 nM | 4780 nM |  |  |  | Cc1cc(COc2ccc(S(=O)(=O)NC[C@@H](C(=O)NO)N3CCN(Cc4ccc(C(F)(F)F)cc4)CC3)cc2)c2ccccc2n1 [Example 20, (S)-N-Hydroxy-3-[4-(2-methylquinolin-4-ylmethoxy)benzenesulfonylamino]-2-[4-(4-trifluoromethylbenzyl)piperazin-1-yl]propionamide] | IC50 [4]: > 10000 nM; IC50 [5]: > 10000 nM; IC50 [6]: > 10000 nM
5 |  |  |  | 99% | 52 nM | CS(=O)(=O)N1CCN([C@@H](CNS(=O)(=O)c2ccc(OCc3cccc4ccccc34)cc2)C(=O)NO)CC1 [Example 6, (S)-N-Hydroxy-2-(4-methanesulfonylpiperazin-1-yl)-3-[4-(naphthalen-1-ylmethoxy)benzenesulfonylamino]propionamide] | 
6 | 1170 nM | 887 nM | 63 nM | 97% | 63 nM | Cc1ccc(CN2CCN([C@@H](CNS(=O)(=O)c3ccc(OCc4cc(C)nc5ccccc45)cc3)C(=O)NO)CC2)cc1 [Example 21, (S)-N-hydroxy-2-[4-(4-methylbenzyl)piperazin-1-yl]-3-[4-(2-methylquinolin-4-ylmethoxy)benzenesulfonylamino]propionamide] | 
7 | 2300 nM | 1770 nM | 41 nM | 92% | 41 nM | CCN1CCN([C@@H](CNS(=O)(=O)c2ccc(OCc3cc(C)nc4ccccc34)cc2)C(=O)NO)CC1 [Example 19, (S)-2-(4-ethyl-piperazin-1-yl)-N-hydroxy-3-[4-(2-methylquinolin-4-yl-methoxy)benzenesulfonylamino]propionamide] | IC50 [4]: > 10000 nM; IC50 [5]: 3050 nM; IC50 [6]: > 10000 nM
8 |  |  |  | 93% |  | Cc1cc(COc2ccc(S(=O)(=O)NC[C@@H](C(=O)NO)N3CCN(C(=O)OCc4ccccc4)CC3)cc2)c2ccccc2n1 [Example 10, Benzyl 4-{(S)-1-hydroxycarbamoyl-2-[4-(2-methylquinolin-4-ylmethoxy)benzenesulfonylamino]ethyl}piperazine-1-carboxylate] | 
9 |  |  |  | 100% | 147 nM | CS(=O)(=O)N1CCN([C@@H](CNS(=O)(=O)c2ccc(OCc3ccc(C#N)cc3)cc2)C(=O)NO)CC1 [Example 9, (S)-3-[4-(4-Cyanobenzyloxy)benzenesulfonylamino]-N-hydroxy-2-(4-methanesulfonylpiperazin-1-yl)propionamide] | 
10 |  |  |  | 96% | 108 nM | Cc1cc(COc2ccc(S(=O)(=O)NC[C@@H](C(=O)NO)N3CCNCC3)cc2)c2ccccc2n1 [Example 13, (S)-N-Hydroxy-3-[4-(2-methylquinolin-4-ylmethoxy)benzenesulfonylamino]-2-piperazin-1-ylpropionamide] | 
11 |  |  |  | 100% | 32 nM | CC#CCOc1ccc(S(=O)(=O)NC[C@@H](C(=O)NO)N2CCN(S(C)(=O)=O)CC2)cc1 [Example 2, (S)-3-(4-but-2-ynyloxybenzenesulfonylamino)-N-hydroxy-2-(4-methanesulfonylpiperazin-1-yl)propionamide] | 
12 |  |  |  | 91% | 62 nM | Cc1cc(COc2ccc(S(=O)(=O)NC[C@@H](C(=O)NO)N3CCN(Cc4ccccc4)CC3)cc2)c2ccccc2n1 [Example 17, (S)-2-(4-Benzylpiperazin-1-yl)-N-hydroxy-3-[4-(2-methylquinolin-4-ylmethoxy)benzenesulfonylamino]propionamide] | 
13 | 969 nM | 574 nM | 16 nM | 98% | 33 nM | Cc1cc(COc2ccc(S(=O)(=O)NC[C@@H](C(=O)NO)N3CCN(S(=O)(=O)C(C)C)CC3)cc2)c2ccccc2n1 [Example 26, (S)-N-hydroxy-3-[4-(2-methylquinolin-4-ylmethoxy)benzenesulfonylamino]-2-[4-(propane-2-sulfonyl)piperazin-1-yl]propionamide] | 
14 |  |  |  | 93% | 24 nM | CS(=O)(=O)N1CCN([C@@H](CNS(=O)(=O)c2ccc(OCc3ccnc(-c4ccccc4)c3)cc2)C(=O)NO)CC1 [Example 11, (S)-N-Hydroxy-2-(4-methanesulfonylpiperazin-1-yl)-3-[4-(2-phenylpyridin-4-ylmethoxy)benzenesulfonylamino]propionamide] | 
15 | 670 nM | 849 nM | 67 nM | 90% | 67 nM | Cc1cc(COc2ccc(S(=O)(=O)NC[C@@H](C(=O)NO)N3CCN(Cc4ccc(F)cc4)CC3)cc2)c2ccccc2n1 [Example 18, (S)-2-[4-(4-Fluorobenzyl)piperazin-1-yl]-N-hydroxy-3-[4-(2-methylquinolin-4-ylmethoxy)benzenesulfonylamino]propionamide] | IC50 [4]: > 10000 nM; IC50 [5]: 9250 nM; IC50 [6]: > 10000 nM

Row | SMILES | IC50 [1] | IC50 [2] | IC50 [3, 8] | % TACE inhibition at 10 μM [3] | IC50 [3, 9] | further results
16 | Cc1cc(COc2ccc(S(=O)(=O)NC[C@@H](C(=O)NO)N3CCN(S(=O)(=O)CC(C)C)CC3)cc2)c2ccccc2n1 [Example 24, (S)-N-hydroxy-2-[4-(2-methylpropane-1-sulfonyl)piperazin-1-yl]-3-[4-(2-methylquinolin-4-ylmethoxy)benzenesulfonylamino]propionamide] | 2060 nM | 1880 nM |  |  |  | 
17 | Cc1cc(COc2ccc(S(=O)(=O)NC[C@@H](C(=O)NO)N3CCN(S(C)(=O)=O)CC3)cc2)c2ccccc2n1.Cl [Example 14, (S)-N-Hydroxy-2-(4-methanesulfonylpiperazin-1-yl)-3-[4-(2-methylquinolin-4-ylmethoxy)benzenesulfonylamino]propionamide hydrochloride] |  |  |  | 98% |  | IC50 ([3]; read-out: IC50-TACE, enzymatic assay, substrate 40 μM, listed as ex14, hydrochloride): 64 nM
18 | Cc1cc(COc2ccc(S(=O)(=O)NC[C@@H](C(=O)NO)N3CCN(S(C)(=O)=O)CC3)cc2)c2ccccc2n1 [Example 5, (S)-N-Hydroxy-2-(4-methanesulfonylpiperazin-1-yl)-3-[4-(2-methylquinolin-4-ylmethoxy)benzenesulfonylamino]propionamide] | 5100 nM | 3200 nM | 21 nM | 99% | 21 nM | 
19 | CC1(C)SCCN(S(=O)(=O)c2ccc(OCC#CCO)cc2)[C@H]1C(=O)NO [Apratastat, reference compound] | 145 nM | 10 nM |  |  |  | IC50 [4]: 71 nM; selectivity for the TACE enzyme compared with certain MMPs [7]: not selective; IC50 [5]: 85 nM; IC50 ([3]; read-out: IC50 (nM) TACE, TACE column of selectivity table): 5 nM; IC50 [6]: 82 nM
